# Data reported in patent US20060189688A1 (priority 2003, published 2006).
# How the values were obtained:
# [1] = system: human influenza A virus NWS/33, H1N1; type: cell-based
# [2] = system: avian influenza A virus Ulster/73, H7N1; type: cell-based; settings: A/Ulster/73, H7N1 strain
# [3] = system: human influenza A virus NWS/33, H1N1; type: cell-based; remark: listed apart in the source
# [4] = system: virus-specific receptors located on red blood cells; parameters: species or system human; settings: red blood cells used for the haemagglutination assay
# [5] = system: viral haemagglutinin HA antigen on the cellular surface of infected LLC-MK2 cells; type: cell-based, influenza A virus; settings: 24 and 48 hours post infection; treated versus untreated infected LLC-MK2 cells
# [6] = system: virus-induced polypeptides of A/NWS/33 in LLC-MK2 cells; type: cell-based, influenza A virus; settings: MESNA 20 mg/ml, effect particularly evident at 1, 2, 5, 1.0, 15 mg/ml
# [7] = system: human influenza A virus NWS/33, H1N1; type: cell-based; remark: listed apart in the source
SMILES,"virus production (haemagglutination, presence/absence of mature viral particles) [1]",results with avian strain compared with human influenza virus A/NWS/33 [2],reversibility of inhibition of the production of viral particles [3],interference with virus-specific receptors on red blood cells [4],haemagglutinin molecules on the surface of infected cells (haemadsorption values) [5],synthesis of virus-induced polypeptides (early and late viral proteins) [6],time of addition up to which MESNA is effective [7] [hours post infection],antiviral action in comparison studies (all experiments repeated) [1]
"O=S(=O)([O-])CCS.[Na+] [MESNA, Sodium 2-mercaptoethanesulfonate]",able to suppress virus production,completely reproducible and absolutely comparable,irreversible inhibition,did not interfere,"great reduction, if not the absence",marked reduction,≤ 6,
O=C([O-])CN(CCN(CC(=O)[O-])CC(=O)[O-])CC(=O)[O-].[Na+].[Na+].[Na+].[Na+] [sodium edetate],,,,,,,,not able to exert an antiviral action
